Measured values reported in ChEMBL document CHEMBL4613258, “Distribution of Bibenzyls, Prenyl Bibenzyls, Bis-bibenzyls, and Terpenoids in the Liverwort Genus Radula” (J Nat Prod, 2020).
In brackets after ≈: the same amount, converted by molar mass. Blank lines part the entries; values can stand above or below the molecule they belong to.

Key:
[1] = Inhibition of calmodulin (unknown origin); settings: Homo sapiens
Staphylococcus aureus = test: […] activity against Staphylococcus aureus; format: functional
[2] = biological target: Vasopressin V1a receptor (Homo sapiens) (UniProt P37288); test: Antagonist activity at vasopressin (unknown origin)
Chain of Vasopressin V1a receptor (Homo sapiens) (P37288 whole entry, looked up): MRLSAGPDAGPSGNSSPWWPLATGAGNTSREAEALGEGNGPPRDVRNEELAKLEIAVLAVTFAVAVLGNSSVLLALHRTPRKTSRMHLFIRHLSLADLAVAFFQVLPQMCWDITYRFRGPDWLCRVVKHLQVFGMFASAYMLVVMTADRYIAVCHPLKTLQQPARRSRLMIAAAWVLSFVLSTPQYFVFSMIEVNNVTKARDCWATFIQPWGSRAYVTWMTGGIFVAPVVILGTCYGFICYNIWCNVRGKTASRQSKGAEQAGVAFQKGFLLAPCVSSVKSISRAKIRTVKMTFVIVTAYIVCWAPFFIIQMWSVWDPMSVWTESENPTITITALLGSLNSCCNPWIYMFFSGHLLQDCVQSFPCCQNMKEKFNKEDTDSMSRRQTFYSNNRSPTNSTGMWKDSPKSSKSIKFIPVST

RAW264.7 = test: Inhibition of LPS-induced NO-production in mouse RAW264.7 cells at 4.5 to 20 uM incubated for 24 hrs by Griess reagent based assay relative to control; format: functional
Candida albicans = test: Antifungal activity against Candida albicans; format: functional
[3] = tested on: Trichophyton mentagrophytes; test: Antifungal activity against Trichophyton mentagrophytes; format: functional
[4] = tested on: Trichostrongylus colubriformis; test: Antiparasitic activity against Trichostrongylus colubriformis; format: functional, organism-based
KB = test: Cytotoxicity against human KB cells; format: functional; settings: read-out: ED50 (the source's name)
MRC5 = test: Cytotoxicity against human MRC5 cells; format: functional, cell-based
Cyclooxygenase = Cyclooxygenase (Homo sapiens, UniProt P35354+P23219); test: Inhibition of COX (unknown origin); format: protein assay
Macrophage = test: Inhibition of superoxide anion radical release in guinea pig macrophages; format: functional, cell-based; settings: Cavia porcellus
[5] = Inhibition of DNA polymerase beta (unknown origin); parameters: species or system Homo sapiens
[6] = tested on: Trichostrongylus colubriformis; test: Antiparasitic activity against Trichostrongylus colubriformis assessed as inhibiton of parasite growth at 0.7 ug/ml relative to control; format: functional
NCI-H1299 = test: Cytotoxicity against human NCI-H1299 cells; format: functional, cell-based
[7] = Antioxidant activity assessed as DPPH radical scavenging activity at 50 ug/ml relative to control; format: functional

Structure (SMILES): COc1cc(CCc2ccccc2)cc(O)c1CC=C(C)C
MIC (Staphylococcus aureus): 3 µg/mL (≈ 10.1 µM)
ID50 [2]: 27 µg/mL (≈ 91.1 µM)

Structure (SMILES): CC1=CCc2c(O)cc(CCc3ccccc3O)cc2OC1
inhibition (INH) (RAW264.7): 50%

Structure (SMILES): Oc1cccc(CCc2ccc(Oc3cc(CCc4cccc(O)c4)ccc3O)cc2)c1
EC50 (KB): 12.5 µg/mL (≈ 29.3 µM)
IC50 (MRC5): 7.46 µg/mL (≈ 17.5 µM)

Structure (SMILES): C[C@]12COc3cc(CCc4ccccc4)c(C(=O)O)c(O)c3[C@H]1C2
IC50 (Cyclooxygenase): 39.7 µM
inhibition (INH) (RAW264.7): 50%
IC50 (Macrophage): 6 µg/mL (≈ 18.5 µM)

Structure (SMILES): Oc1cccc(CCc2ccc(Oc3cc(CCc4cccc(O)c4)cc(O)c3O)cc2)c1 [PERROTETTIN F]
EC50 (KB): 20 µg/mL (≈ 45.2 µM)
IC50 [5]: 97.5 to 114 µM

Structure (SMILES): COc1ccc(CCc2cccc(OC)c2)cc1
inhibition at 0.7 µg/mL [6]: 30%

Structure (SMILES): CC(C)=CCC/C(C)=C/Cc1c(O)cc(O)cc1CCc1ccccc1
MIC (Staphylococcus aureus): 20 µg/mL (≈ 57.1 µM)
ID50 [1]: 4 µg/mL (≈ 11.4 µM)
inhibition (INH) (RAW264.7): 50%

Structure (SMILES): COC(=O)c1c(CCc2ccccc2)cc(O)c(CC=C(C)C)c1O
IC50 (NCI-H1299): 5.1 µM

The next lines start with results.

ID50 [1]: 3.5 µg/mL (≈ 11.7 µM)
Structure (SMILES): CC(C)=CCc1c(CCc2ccccc2)cc(O)c(O)c1O

ID50 [1]: 2 µg/mL (≈ 6.75 µM)
Structure (SMILES): C=C(C)[C@H]1Cc2c(CCc3ccccc3)cc(O)c(O)c2O1

MIC (Candida albicans): 125 µg/mL (≈ 548 µM)
MIC [3]: 62.5 µg/mL (≈ 274 µM)
IC50 [4]: 0.13 µg/mL (≈ 0.569 µM)
Structure (SMILES): COc1cccc(CCc2ccc(O)cc2)c1

ID50 [1]: 18.5 µg/mL (≈ 54.4 µM)
Structure (SMILES): CC1=CCc2c(cc(CCc3ccc(O)cc3)c(C(=O)O)c2O)OC1

ID50 [1]: 95 µg/mL (≈ 339 µM)
Structure (SMILES): CC1=CCc2c(O)cc(CCc3ccccc3)cc2OC1
inhibition (INH) (RAW264.7): 50%

ID50 [1]: 4.9 µg/mL (≈ 17.4 µM)
Structure (SMILES): CC(C)=CCc1c(O)cc(O)cc1CCc1ccccc1
Activity [7]: 28%
